Assay results from PMC4774911, “Biochemical Screening of Five Protein Kinases from Plasmodium falciparum against 14,000 Cell-Active Compounds” (PLoS ONE, 2016).
Like-named read-outs stand apart in the source and are kept apart here.

Key:
P. falciparum 3D7 cells = conditions: cited from earlier work
HepG2 cells = conditions: cited from earlier work
P. falciparum DD2 = test system: P. falciparum DD2; design: method as in ChEMBL; conditions: ref ChEMBL; cited from earlier work
[1] = molecular target: T1, Plasmodium falciparum protein kinase 6 (PK6) (Plasmodium falciparum, UniProt Q8IDW1); assay: biochemical; conditions: hits below 1 uM; read-out: PK6 IC50
T1 construct: 6-Histidine (N); made in house
T1 sequence (Q8IDW1 1-305): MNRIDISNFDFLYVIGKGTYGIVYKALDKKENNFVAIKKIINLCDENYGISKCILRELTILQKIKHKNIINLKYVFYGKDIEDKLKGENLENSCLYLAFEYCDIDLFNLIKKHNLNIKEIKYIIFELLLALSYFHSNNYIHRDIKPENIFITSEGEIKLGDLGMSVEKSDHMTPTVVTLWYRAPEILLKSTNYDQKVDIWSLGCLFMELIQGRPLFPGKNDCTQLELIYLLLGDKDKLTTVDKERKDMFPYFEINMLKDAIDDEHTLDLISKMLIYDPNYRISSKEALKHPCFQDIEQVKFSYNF

3D7 PFLDH [2] = test system: 3D7 PFLDH; design: method as in ChEMBL; conditions: ref ChEMBL; cited from earlier work
[3] = molecular target: T2, Plasmodium falciparum calcium-dependent protein kinase 1 (CDPK1) (Plasmodium falciparum, UniProt P62344); assay: CDPK1 Kinase-Glo ATP-consumption screen and dose-response; assay type: biochemical; conditions: hits below 1 uM; read-out: CDPK1 IC50
T2 construct: 6-Histidine (N); made in house
Procedure, shortened: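 Single-point testing used 1 μM final compound, then dose-response, against CDPK4 and CDPK1 with Syntide-2 (40 μM) as substrate. After 90 min, reactions were halted by 5 mM EGTA, and kinase activity was inferred from depleted ATP via Kinase-Glo luminescence.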

[4] = molecular target: T3, Plasmodium falciparum calcium-dependent protein kinase 4 (CDPK4) (Plasmodium falciparum, UniProt Q8IBS5); assay: CDPK4 Kinase-Glo ATP-consumption screen and dose-response; assay type: biochemical; conditions: hits below 1 uM
T3 construct: 6-Histidine (N); made in house
T3 sequence (Q8IBS5 1-528): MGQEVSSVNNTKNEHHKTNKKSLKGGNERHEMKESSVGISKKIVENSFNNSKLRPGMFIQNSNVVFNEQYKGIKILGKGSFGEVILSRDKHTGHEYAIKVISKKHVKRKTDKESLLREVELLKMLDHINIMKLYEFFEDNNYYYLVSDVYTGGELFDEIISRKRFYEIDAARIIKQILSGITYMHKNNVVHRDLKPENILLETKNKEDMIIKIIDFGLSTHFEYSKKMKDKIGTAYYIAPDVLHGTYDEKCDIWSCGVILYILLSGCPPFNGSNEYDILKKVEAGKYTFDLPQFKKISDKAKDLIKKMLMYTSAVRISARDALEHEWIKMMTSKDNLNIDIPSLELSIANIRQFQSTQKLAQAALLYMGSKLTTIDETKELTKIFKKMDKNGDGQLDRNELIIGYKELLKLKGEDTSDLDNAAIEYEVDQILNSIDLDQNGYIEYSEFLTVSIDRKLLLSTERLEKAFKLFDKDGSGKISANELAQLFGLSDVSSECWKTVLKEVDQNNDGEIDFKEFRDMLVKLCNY
Description: Biochemical assays were performed in white 384-well plates (Nunc). Liquid transfers were done manually with 8-channel pipets. Compounds were initially tested in a single-point screen (final concentration 1 μM). […] The catalytic activity of each kinase was considered proportional to ATP consumed, as determined from measurements of residual [ATP] with the luciferase-based reagent Kinase-Glo (Promega) following incubation. Luminescence (proportional to residual [ATP]) was measured on the plate readers FLx800 (BioTek Instruments, Winooski, VT, USA) and MicroBeta^2 (PerkinElmer, Waltham, MA, USA). Incubation times were chosen to ensure near-complete ATP depletion in the absence of inhibition, thus maximizing the difference in signal between inhibited and uninhibited wells.
40 μM Syntide-2 was used as a substrate; BKI-1 [14] was used as a control inhibitor, while reaction mixtures lacking Syntide-2 were included as an additional negative control. Incubation time was 90 minutes. Reactions were terminated by adding excess EGTA (5 mM), which sequesters Ca^2+ and halts calcium-dependent kinase activity.

PKG = PKG (Plasmodium falciparum, UniProt Q8I719); assay: PKG IC50 (supplementary data file); assay type: biochemical
Excerpt: Supplement pone.0149996.s003.xls, sheet "combined_1_sorted"

3D7 PFLDH [5] = test system: 3D7 PFLDH; design: method as in downloaded from ChEMBL; conditions: ref downloaded from ChEMBL; cited from earlier work
DD2 = test system: DD2; design: method as in downloaded from ChEMBL; conditions: ref downloaded from ChEMBL; cited from earlier work
[6] = 3D7, ref downloaded from ChEMBL
[7] = HEPG2, ref downloaded from ChEMBL

T2 sequence (P62344 whole entry): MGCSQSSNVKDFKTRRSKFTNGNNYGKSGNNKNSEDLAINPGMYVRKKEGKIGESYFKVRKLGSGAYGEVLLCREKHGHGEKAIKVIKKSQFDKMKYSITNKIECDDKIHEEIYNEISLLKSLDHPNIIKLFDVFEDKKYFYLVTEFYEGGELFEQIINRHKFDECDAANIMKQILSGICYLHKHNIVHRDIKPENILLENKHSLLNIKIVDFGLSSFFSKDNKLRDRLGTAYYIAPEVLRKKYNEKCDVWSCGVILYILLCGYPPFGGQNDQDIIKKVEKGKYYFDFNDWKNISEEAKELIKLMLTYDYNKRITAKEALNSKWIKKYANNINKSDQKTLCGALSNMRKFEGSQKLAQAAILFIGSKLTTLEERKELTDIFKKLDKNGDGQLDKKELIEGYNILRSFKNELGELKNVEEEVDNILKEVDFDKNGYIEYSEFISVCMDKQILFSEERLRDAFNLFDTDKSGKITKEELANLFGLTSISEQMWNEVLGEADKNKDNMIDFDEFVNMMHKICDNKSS
Chain of PKG (Q8I719 whole entry): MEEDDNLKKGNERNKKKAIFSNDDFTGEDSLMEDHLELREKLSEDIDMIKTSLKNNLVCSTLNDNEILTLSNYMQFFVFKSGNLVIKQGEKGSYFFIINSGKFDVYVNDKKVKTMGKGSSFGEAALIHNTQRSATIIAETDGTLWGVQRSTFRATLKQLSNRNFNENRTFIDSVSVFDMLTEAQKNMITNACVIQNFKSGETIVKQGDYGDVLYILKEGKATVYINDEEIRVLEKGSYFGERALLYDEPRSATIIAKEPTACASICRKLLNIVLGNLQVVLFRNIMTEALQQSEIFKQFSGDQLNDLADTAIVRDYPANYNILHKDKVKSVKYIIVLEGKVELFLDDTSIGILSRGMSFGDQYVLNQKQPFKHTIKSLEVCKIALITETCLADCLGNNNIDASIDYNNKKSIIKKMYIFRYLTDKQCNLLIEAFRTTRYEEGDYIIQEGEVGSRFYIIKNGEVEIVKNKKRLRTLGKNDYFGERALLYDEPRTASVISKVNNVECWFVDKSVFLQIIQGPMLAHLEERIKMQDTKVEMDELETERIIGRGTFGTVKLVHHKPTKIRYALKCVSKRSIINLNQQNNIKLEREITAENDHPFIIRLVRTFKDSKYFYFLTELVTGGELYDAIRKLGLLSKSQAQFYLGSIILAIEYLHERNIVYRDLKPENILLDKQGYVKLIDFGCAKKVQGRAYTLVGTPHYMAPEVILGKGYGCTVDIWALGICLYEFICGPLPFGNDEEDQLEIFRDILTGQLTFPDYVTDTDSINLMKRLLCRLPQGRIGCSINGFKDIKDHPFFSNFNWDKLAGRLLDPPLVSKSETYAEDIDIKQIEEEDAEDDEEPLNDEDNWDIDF

Structure (SMILES)	PCT_IHB_3D7 (P. falciparum 3D7 cells; P. falciparum 3D7, ref ChEMBL)	pXC50_3D7 (P. falciparum 3D7 cells; P. falciparum 3D7, ref ChEMBL)	PCT_INHIB_HEPG2 (HepG2 cells; HepG2 cells, ref ChEMBL)	PCT_INHB_DD2 (P. falciparum DD2)	IC50 [1] [nM]	PCT_INHIB_3D7_PFLDH (3D7 PFLDH [2])	IC50 [3] [nM]	IC50 [4] [nM]	PCT_IHB_3D7 (P. falciparum 3D7 cells; [6])	pXC50_3D7 (P. falciparum 3D7 cells; [6])	IC50 (PKG) [nM]	PCT_INHIB_3D7_PFLDH (3D7 PFLDH [5])	PCT_INHIB_HEPG2 (HepG2 cells; [7])	PCT_INHB_DD2 (DD2)
Cn1cnc2c(Nc3ccncc3)nc(-c3ccc4c(c3)OCO4)nc21.O=C(O)C(F)(F)F [TCMDC-141274]	96	5.953	19	2	500	0								
CN1CCC(NC(=O)c2cccc(Nc3cc(Nc4cccc(Br)c4)ncn3)c2)CC1 [TCMDC-124773]	94	5.997	25	6	602	1								
CN(C(=O)c1cc2c(-c3cncnc3)cccc2[nH]1)c1ccccc1 [TCMDC-134637]	92	6.202	1	99		0	271							
Cn1c(=O)c(-c2c(Cl)cccc2Cl)cc2cnc(Nc3ccc(N4CCOCC4)cc3)nc21 [TCMDC-137156]	98	6.794	64	97	145	4								
NS(=O)(=O)c1cccc(Nc2nccc(-c3c(-c4cccc(NC(=O)c5c(F)cccc5F)c4)nn4ccccc34)n2)c1 [TCMDC-135780]							20	51	98	7.1329	> 10000	2	81	97
CS(=O)(=O)Cc1ccc(Nc2nccc(-c3c(-c4cccc(NC(=O)c5c(F)cccc5F)c4)nn4ccccc34)n2)cc1 [TCMDC-135669]					276		20	52	99	6.824	> 10000	0	78	75
N#Cc1cnc(Nc2ccc(Oc3ccccc3)cc2)nc1Nc1cccc(S(N)(=O)=O)c1 [TCMDC-138613]	96	6.256	74	86	201	3								
Cc1cc(F)ccc1-c1nc(Nc2ccncc2)c2ccn(C)c2n1 [TCMDC-141231]	89	6.027	9	8		5	40							
Cl.NCc1ccc(Nc2nccc(Nc3ccc(-c4ccccc4)cc3)n2)cc1 [TCMDC-136004]	100	6.05	47	98		0	375							
Cl.NC[C@H](CC1CCCCC1)NC(=O)c1ccc(-c2ccnc3[nH]ccc23)s1 [TCMDC-134150]							492	527	98	6.022	1020	5	39	4
O=C(Nc1cccc(-c2nn3ccccc3c2-c2ccnc(Nc3ccc(-c4cc[nH]n4)cc3)n2)c1)c1c(F)cccc1F [TCMDC-135915]							22	307	98	6.7232	> 10000	5	68	98
NCC(NC(=O)c1ccc(-c2c[nH]c3ncccc23)s1)c1ccccc1.O=CO (centres unmarked) [TCMDC-134154]							29	473	95	6.262	430	0	52	87
Cc1cc(Nc2nc(Nc3cccc(Cl)c3)nc3ccccc23)n[nH]1 [TCMDC-134695]	100	6.542	9	95	151	0								
CC(c1cccc(Nc2nccc(-c3c(-c4cccc(NC(=O)c5c(F)cccc5F)c4)nn4ccccc34)n2)c1)S(C)(=O)=O (centres unmarked) [TCMDC-135670]							21	90	98	7.241	> 10000	0	76	99
Cc1ccc(Nc2nc3cc(Nc4ccnc(Nc5cccc(CS(C)(=O)=O)c5)n4)ccc3o2)cc1.O=C(O)C(F)(F)F [TCMDC-141957]	100	6.0348	55	81	229	4								
O=C(Nc1c(F)cccc1F)c1cccc(-c2nn3ccccc3c2-c2ccnc(Nc3cccc(-c4cnco4)c3)n2)c1 [TCMDC-135743]							40	134	95	6.443	> 10000	0	96	94
CN1CCN(c2ccc(Nc3nccc(-c4c(-c5cccc(NC(=O)c6c(F)cccc6F)c5)nn5ccccc45)n3)cc2)CC1 [TCMDC-135818]							35	75	98	6.95	115	0	86	98
CN(c1ccc2c(c1)nc(NCc1ccccc1)n2C)c1ccnc(Nc2ccc(CS(C)(=O)=O)cc2)n1.Cl [TCMDC-138740]	94	6.075	61	69	464	4								
C(=N\Nc1nccc2sc(-c3ccccc3)cc12)/c1cccnc1 [TCMDC-135190]	97	6.086	0	10	278	8								
C#CCNC(=O)c1ccc(-c2ccnc(Nc3cccc(CCCN4CCOCC4)c3)n2)s1 [TCMDC-136764]	82	5.998	54	45	181	0								
O=C(Nc1cccc(-c2nn3ccccc3c2-c2ccnc(Nc3ccc(NCCCN4CCOCC4)c(F)c3)n2)c1)c1c(F)cccc1F [TCMDC-135921]					580		38	315	100	6.586	5460	0	86	97
Cc1ccc(Nc2nccc(Nc3ccc4c(c3)nc(Nc3cc(C(C)(C)C)on3)n4C)n2)cc1S(C)(=O)=O [TCMDC-141889]	100	6.222	30	99		0	242							
